We go through 2 molecules from patent US20130345163A1, “BIOLOGICAL MARKER FOR INFLAMMATION” (CAN-FITE BIOPHARMA LTD., priority 2004, published 2013).

Structures are written as SMILES.

The test system of experiment [1] is Adjuvant Induced Arthritis (AIA) rats. Put plainly: Adjuvant induced arthritis (AIA) model in rats, clinical disease activity score. The experiment is classed as in vivo, rat. The following applies: CF101 10 μg/kg orally twice daily from day 14 after immunization, MTX 1.5 mg/kg intraperitoneally every 3 days from day 14, vs vehicle. The protocol:
(§1) Female Lewis rats, aged 8-12 weeks were obtained from Harlan Laboratories (Jerusalem, Israel). Rats were maintained on a standardized pelleted diet and supplied with tap water. Experiments were performed in accordance with the guidelines established by the Institutional Animal Care and Use Committee at Can-Fite BioPharma, Petah Tikva, Israel. The rats were injected subcutaneously (SC) at the tail base with 100 μl of suspension composed of incomplete Freund's adjuvant (IFA) with 10 mg/ml heat killed Mycobacterium tuberculosis, (Mt) H37Ra, (Difco, Detroit, USA). Each group contained 10 animals.
(§2) Treatment with IB-MECA (10 μg/kg) was initiated on day 14 after vaccination and was orally administered by gavage, twice daily. Another group was treated with Methotrexate (MTX) (1.5 mg/kg) intraperitoneally every 3 days, starting on day 14th after vaccination. The control group in each experiment received vehicle only (DMSO in a dilution corresponding to that of the drugs).
Clinical Disease Activity Score was assessed as follows: the animals were inspected every second day for clinical arthritis. […] The clinical score was calculated by adding the four individual legs' score. The inflammatory intensity was also determined in accordance with the increase in the rat hind paw's diameter, measured by caliper (Mitotoyo, Tokyo, Japan).

In experiment [2] the test system is A3AR. As to the kind of experiment: A3AR protein expression level by Western blot in tissues of AIA rats. The experiment is classed as in vivo, rat. Here is the method:
as §1, §2
The hind paws were dissected above the ankle joint. The bony tissue was broken into pieces, snap frozen in liquid nitrogen and stored at −80° C. until use. To prepare a protein extract, RIPA buffer (containing 150 mM NaCl, 50 mM Tris, 1% NP40, 0.5% Deoxycholate and 0.1% SDS) was added to the paw tissue (4 ml/gr of tissue). The mixture was homogenized on ice with a polytron and centrifuged.
Synovial tissue was removed and synovial cells were separated by incubating the tissue in RPMI containing 1 mg/ml Collagenase IV and 0.1 mg/ml DNase with a vigorous shaking (200 rpm) at 37° C. for 30 min. The supernatant containing the synovial cells was collected and the undigested tissue was re-extracted. The supernatants from both extractions were combined and cells were washed with PBS. Protein extracts were prepared. […]
Western blot analysis (WB) of synovial, paw, spleen and lymph nodes were carried out according to the following protocol. […] Protein concentrations were determined using the Bio-Rad protein assay dye reagent. […] Bands were recorded using BCIP/NBT color development kit (Promega, Madison, Wis., USA).
(Immunoblotting shows a protein as a band on a membrane.)

The next experiment relates to RA patients. As to the kind of experiment: Clinical study of CF101 in RA patients, ACR response. Type of experiment: in vivo, human. Here is the method: Blood was withdrawn from RA patients who were enrolled in a clinical study sponsored by Can-Fite BioPharma, in which the effect of CF101, a clinical grade IB-MECA, on arthritic patients was evaluated. The patients randomly received 0.1, 1.0 or 4.0 mg of CF101 twice daily. Blood was withdrawn at 2 time points: (a) after a washout period of 4-6 weeks from a previous treatment and before CF101 treatment was initiated—this was considered as baseline level; (b) after 3 months of treatment with CF101. Peripheral blood mononuclear cells were separated and protein was extracted as described above. In addition, C reactive protein (CRP) values, the number of tender and swollen joints, the physicians global assessment, the patient own assessment, the pain score and the disability score were recorded and the ACR score was calculated for each patient (ACR is a score that is calculated according to criteria established by the American College of Rheumatology, based on the aforementioned measures, to evaluate the effectiveness of drugs for treatment of RA; ACR 20, ACR 50 and ACR 70 respectively represent a 20%, 50% and 70% improvement in this score).

Experiment [3] concerns A3AR. Put plainly: A3AR level in peripheral blood mononuclear cells of RA patients by Western blot. Type of experiment: in vivo, human. Here is the method: Protein concentrations were determined using the Bio-Rad protein assay dye reagent. Equal amounts of the sample (50 μg) were separated by SDS-PAGE, using 12% polyacrylamide gels. […] Bands were recorded using BCIP/NBT color development kit (Promega, Madison, Wis., USA).

[4] abbreviates: out of 17 RA patients, 3 months of CF101.

In the case of `CNC(=O)[C@H]1O[C@@H](n2cnc3c(NCc4cccc(I)c4)ncnc32)[C@H](O)[C@@H]1O` [CF101, N^6-(3-iodobenzyl)-adenosine-5′-N-methyluronamide], in experiment [1], the “disease severity evaluated by the arthritis clinical score” value is on record as “significant decrease”. Also, the “A3AR expression level in peripheral hematopoietic tissues (spleen and lymph node)” value in the experiment with A3AR [2] (AIA rats treated with IB-MECA, low in naïve animals, high in AIA) was “low expression”. Besides, the “A3AR protein expression level in inflammatory tissues (paw & synovial)” value in the experiment on A3AR [2] (AIA rats, upon IB-MECA treatment vs untreated AIA) is listed as “down-regulated”. Also, in the experiment on RA patients (setting [4]), the “responders with ACR 20 only response” value came out at 4 patients, the “responders with ACR 50 response” value was 5 patients and the “responders with ACR 70 response” value turned out to be 3 patients. Moreover, the “non-responders (not even an ACR 20 response)” value in the experiment on RA patients (out of 17 RA patients, 3 months of CF101 0.1, 1.0 or 4.0 mg twice daily) is on record as 5 patients. Further, the “other parameters, particularly number of swollen and tender joints, in patient no. 1517” value with RA patients (single RA patient with no ACR response (CRP change below 0%), 3 months of CF101) was “very significant improvement”. Moreover, the “A3AR level in PBMNC of non-responders” value with A3AR [3] (after 3 months CF101 treatment vs baseline) was “essentially no change”. In the experiment on A3AR [3] (after 3 months CF101 treatment vs baseline (initial high level)), the “A3AR level in PBMNC of ACR 50 and ACR 70 responders” value is on record as “reduced”.

For `CN(Cc1cnc2nc(N)nc(N)c2n1)c1ccc(C(=O)N[C@@H](CCC(=O)O)C(=O)O)cc1` [methotrexate, reference compound], the “disease severity evaluated by the arthritis clinical score” value in experiment [1] is “significant decrease”. Also, in the experiment on A3AR [2] (AIA rats treated with MTX, compared with pattern seen with IB-MECA), the “A3AR expression profile in lymph nodes (LN)” value was “a similar A3AR expression profile was observed”. The “level of the A3AR in PBMNCs” value with A3AR [3] (4 RA patients, prior to vs after onset of treatment with methotrexate) is reported as “increase”.
